# In US9630922B2, “3-spiro-7-hydroxamic acid tetralins as HDAC inhibitors” (Forma Therapeutics, Inc., priority 2015, dated 2017):
# Target: T1, HDAC6 (Homo sapiens, UniProt Q9UBN7)
# T1 construct: Full length human recombinant HDAC6 protein was expressed in baculoviral system; made in house; host or cells: baculoviral system
# T1 sequence (Q9UBN7 1-1215): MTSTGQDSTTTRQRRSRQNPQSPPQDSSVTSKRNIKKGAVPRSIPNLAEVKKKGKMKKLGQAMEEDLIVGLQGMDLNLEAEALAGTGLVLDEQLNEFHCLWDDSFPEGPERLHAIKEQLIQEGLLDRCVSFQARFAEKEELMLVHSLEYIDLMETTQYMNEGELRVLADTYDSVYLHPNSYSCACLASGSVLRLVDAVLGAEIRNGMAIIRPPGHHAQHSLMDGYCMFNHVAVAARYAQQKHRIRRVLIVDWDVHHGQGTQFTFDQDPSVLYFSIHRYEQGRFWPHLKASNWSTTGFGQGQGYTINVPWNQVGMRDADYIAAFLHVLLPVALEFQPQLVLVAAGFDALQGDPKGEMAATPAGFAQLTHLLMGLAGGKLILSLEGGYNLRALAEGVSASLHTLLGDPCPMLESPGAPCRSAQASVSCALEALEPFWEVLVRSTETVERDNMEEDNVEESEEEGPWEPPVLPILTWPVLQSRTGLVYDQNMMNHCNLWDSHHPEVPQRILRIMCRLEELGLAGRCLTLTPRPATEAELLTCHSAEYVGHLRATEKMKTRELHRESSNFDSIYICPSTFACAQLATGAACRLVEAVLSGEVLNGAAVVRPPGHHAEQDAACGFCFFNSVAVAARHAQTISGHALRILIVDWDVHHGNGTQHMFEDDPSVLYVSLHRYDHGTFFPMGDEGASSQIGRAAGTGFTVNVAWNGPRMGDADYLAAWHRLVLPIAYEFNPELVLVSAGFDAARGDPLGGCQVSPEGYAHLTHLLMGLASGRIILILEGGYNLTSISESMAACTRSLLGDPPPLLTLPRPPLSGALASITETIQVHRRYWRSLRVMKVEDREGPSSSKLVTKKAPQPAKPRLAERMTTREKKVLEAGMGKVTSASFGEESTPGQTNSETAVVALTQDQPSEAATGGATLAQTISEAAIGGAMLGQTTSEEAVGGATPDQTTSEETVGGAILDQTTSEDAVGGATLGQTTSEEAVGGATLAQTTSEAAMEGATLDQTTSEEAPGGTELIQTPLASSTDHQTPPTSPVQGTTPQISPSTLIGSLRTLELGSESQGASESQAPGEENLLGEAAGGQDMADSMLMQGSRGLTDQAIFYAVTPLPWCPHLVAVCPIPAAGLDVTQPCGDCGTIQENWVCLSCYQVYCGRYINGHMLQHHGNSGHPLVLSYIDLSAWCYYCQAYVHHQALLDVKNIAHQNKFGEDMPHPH
# Assay: In vitro Histone Deacetylase Assay (enzymatic HDAC6 electrophoretic mobility shift assay)
# Format: biochemical
# Conditions: full length human recombinant HDAC6, 1 nM enzyme, 2 μM peptide substrate RHKK(Ac)-NH2, 25° C.; read-out: HDAC6 activity range
# How it was run: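 Deacetylation was read by microfluidic mobility shift as product/(substrate+product) peak ratio and normalised to 0% and 100% inhibition controls. Reactions used 1 nM baculovirus-expressed full-length human HDAC6 and 2 μM labelled RHKK(Ac)-NH2 in pH 7.5 HEPES buffer with 1% DMSO at 25 °C. IC50 was from 4-parameter fits of 12 concentrations.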
row,IC50 [nM],SMILES
1,≤ 100,"O=C(NO)c1ccc2c(c1)CC[C@@]1(CCN(c3cc(F)ccc3F)C1=O)C2 [Compound I-169, (S)-1′-(2,5-difluorophenyl)-N-hydroxy-2′-oxo-3,4-dihydro-1H-spiro[naphthalene-2,3′-pyrrolidine]-6-carboxamide]"
2,≤ 100,"Cn1cc(N2CC[C@@]3(CCc4cc(C(=O)NO)ccc4C3)C2=O)cn1 [Compound I-170, (S)-N-hydroxy-1′-(1-methyl-1H-pyrazol-4-yl)-2′-oxo-3,4-dihydro-1H-spiro[naphthalene-2,3-pyrrolidine]-6-carboxamide]"
3,≤ 100,"N#Cc1ccc(N2CC[C@@]3(CCc4cc(C(=O)NO)ccc4C3)C2=O)cc1 [Compound I-173, (S)-1′-(4-cyanophenyl)-N-hydroxy-2′-oxo-3,4-dihydro-1H-spiro[naphthalene-2,3′-pyrrolidine]-6-carboxamide]"
4,≤ 100,"N#Cc1ccccc1N1CC[C@@]2(CCc3cc(C(=O)NO)ccc3C2)C1=O [Compound I-174, (S)-1′-(2-cyanophenyl)-N-hydroxy-2′-oxo-3,4-dihydro-1H-spiro[naphthalene-2,3′-pyrrolidine]-6-carboxamide]"
5,≤ 100,"N#Cc1ccccc1N1CC[C@]2(CCc3cc(C(=O)NO)ccc3C2)C1=O [Compound I-175, (R)-1′-(2-cyanophenyl)-N-hydroxy-2′-oxo-3,4-dihydro-1H-spiro[naphthalene-2,3′-pyrrolidine]-6-carboxamide]"
6,≤ 100,"O=C(NO)c1ccc2c(c1)CCC1(CCCN(Cc3ccccc3)C1=O)C2 (stereo not shown) [Compound I-176, 1′-benzyl-N-hydroxy-2′-oxo-3,4-dihydro-1H-spiro[naphthalene-2,3′-piperidine]-6-carboxamide]"
7,≤ 100,"O=C(NO)c1ccc2c(c1)CCC1(CCCNC1=O)C2 (stereo not shown) [Compound I-177, N-hydroxy-2′-oxo-3,4-dihydro-1H-spiro[naphthalene-2,3′-piperidine]-6-carboxamide]"
8,≤ 100,"CN1CCCC2(CCc3cc(C(=O)NO)ccc3C2)C1=O (stereo not shown) [Compound I-178, N-hydroxy-1′-methyl-2′-oxo-3,4-dihydro-1H-spiro[naphthalene-2,3′-piperidine]-6-carboxamide]"
9,≤ 100,"O=C(NO)c1ccc2c(c1)CC[C@]1(CCCN(C3CC3)C1=O)C2 [Compound I-183, (S)-1′-cyclopropyl-N-hydroxy-2′-oxo-3,4-dihydro-1H-spiro[naphthalene-2,3′-piperidine]-6-carboxamide]"
10,≤ 100,"O=C(NO)c1ccc2c(c1)CC[C@@]1(CCCN(C3CCCC3)C1=O)C2 [Compound I-199, (R)-1′-cyclopentyl-N-hydroxy-2′-oxo-3,4-dihydro-1H-spiro[naphthalene-2,3′-piperidine]-6-carboxamide]"
11,≤ 100,"O=C(NO)c1ccc2c(c1)CC[C@]1(CCCN(C3CCCC3)C1=O)C2 [Compound I-200, (S)-1′-cyclopentyl-N-hydroxy-2′-oxo-3,4-dihydro-1H-spiro[naphthalene-2,3′-piperidine]-6-carboxamide]"
12,≤ 100,"O=C(NO)c1ccc2c(c1)CC[C@]1(CC(=O)N(c3ccncc3)C1)C2 [Compound I-228, (R)-N-hydroxy-5′-oxo-1′-(pyridin-4-yl)-3,4-dihydro-1H-spiro[naphthalene-2,3′-pyrrolidine]-6-carboxamide]"
13,≤ 100,"O=C(NO)c1ccc2c(c1)CC[C@]1(CC(=O)N(c3ccccn3)C1)C2 [Compound I-229, (R)-N-hydroxy-5′-oxo-1′-(pyridin-2-yl)-3,4-dihydro-1H-spiro[naphthalene-2,3′-pyrrolidine]-6-carboxamide]"
14,> 500,"O=C(NO)c1ccc2c(c1)CCC1(CCN(Cc3ccncc3)C1=O)O2 (stereo not shown) [Compound I-230, N-hydroxy-2′-oxo-1′-(pyridin-4-ylmethyl)spiro[chromane-2,3′-pyrrolidine]-6-carboxamide]"
15,100 to 500,"O=C(NO)c1ccc2c(c1)CCC1(CCN(c3ccccc3)C1=O)O2 (stereo not shown) [Compound I-231, N-hydroxy-2′-oxo-1′-phenylspiro[chromane-2,3′-pyrrolidine]-6-carboxamide]"
16,100 to 500,"O=C(NO)c1ccc2c(c1)CCC1(CCN(Cc3ccccc3)C1=O)O2 (stereo not shown) [Compound I-232, 1′-benzyl-N-hydroxy-2′-oxospiro[chromane-2,3′-pyrrolidine]-6-carboxamide]"

row,IC50 [nM],SMILES
1,100 to 500,"O=C(NO)c1ccc2c(c1)CCC1(CCN(c3cccnc3)C1=O)O2 (stereo not shown) [Compound I-233, N-hydroxy-2′-oxo-1′-(pyridin-3-yl)spiro[chromane-2,3′-pyrrolidine]-6-carboxamide]"
2,> 500,"O=C(NO)c1ccc2c(c1)CCC1(CCN(CC3CCOCC3)C1=O)O2 (stereo not shown) [Compound I-234, N-hydroxy-2′-oxo-1′-((tetrahydro-2H-pyran-4-yl)methyl)spiro[chromane-2,3′-pyrrolidine]-6-carboxamide]"
3,> 500,"CC(C)N1CCC2(CCc3cc(C(=O)NO)ccc3O2)C1=O (stereo not shown) [Compound I-235, N-hydroxy-1′-isopropyl-2′-oxospiro[chromane-2,3′-pyrrolidine]-6-carboxamide]"
4,100 to 500,"O=C(NO)c1ccc2c(c1)CCC1(CCNC1=O)O2 (stereo not shown) [Compound I-236, N-hydroxy-2′-oxospiro[chromane-2,3′-pyrrolidine]-6-carboxamide]"
5,100 to 500,"CN1CCC2(CCc3cc(C(=O)NO)ccc3O2)C1=O (stereo not shown) [Compound I-237, N-hydroxy-1′-methyl-2′-oxospiro[chromane-2,3′-pyrrolidine]-6-carboxamide]"
6,100 to 500,"O=C(NO)c1ccc2c(c1)CCC1(CCN(c3ccccc3)C1=O)S2(=O)=O (stereo not shown) [Compound I-238, N-hydroxy-2-oxo-1-phenylspiro[pyrrolidine-3,2′-thiochromane]-6′-carboxamide 1′,1′-dioxide]"
7,100 to 500,"O=C(NO)c1ccc2c(c1)CCC1(CCN(Cc3ccccc3)C1=O)S2(=O)=O (stereo not shown) [Compound I-239, 1-benzyl-N-hydroxy-2-oxospiro[pyrrolidine-3,2′-thiochromane]-6′-carboxamide 1′,1′-dioxide]"
8,100 to 500,"O=C(NO)c1ccc2c(c1)CCC1(CCN(c3cccnc3)C1=O)S2(=O)=O (stereo not shown) [Compound I-240, N-hydroxy-2-oxo-1-(pyridin-3-yl)spiro[pyrrolidine-3,2′-thiochromane]-6′-carboxamide 1′,1′-dioxide]"
9,> 500,"O=C(NO)c1ccc2c(c1)CCC1(CCN(CC3CCOCC3)C1=O)S2(=O)=O (stereo not shown) [Compound I-241, N-hydroxy-2-oxo-1-((tetrahydro-2H-pyran-4-yl)methyl)spiro[pyrrolidine-3,2′-thiochromane]-6′-carboxamide 1′,1′-dioxide]"
10,> 500,"O=C(NO)c1ccc2c(c1)CCC1(CCN(Cc3ccncc3)C1=O)S2(=O)=O (stereo not shown) [Compound I-242, N-hydroxy-2-oxo-1-(pyridin-4-ylmethyl)spiro[pyrrolidine-3,2′-thiochromane]-6′-carboxamide 1′,1′-dioxide]"
11,> 500,"O=C(NO)c1ccc2c(c1)CCC1(CCNC1=O)S2(=O)=O (stereo not shown) [Compound I-243, N-hydroxy-2-oxospiro[pyrrolidine-3,2′-thiochromane]-6′-carboxamide 1′,1′-dioxide]"
12,> 500,"CN1CCC2(CCc3cc(C(=O)NO)ccc3S2(=O)=O)C1=O (stereo not shown) [Compound I-244, N-hydroxy-1-methyl-2-oxospiro[pyrrolidine-3,2′-thiochromane]-6′-carboxamide 1′,1′-dioxide]"
13,> 500,"COc1ccc(CN2CCC3(CCc4cc(C(=O)NO)ccc4O3)CC2)cc1 [II-1, N-hydroxy-1′-(4-methoxybenzyl)spiro[chromane-2,4′-piperidine]-6-carboxamide]"
14,> 500,"O=C(NO)c1ccc2c(c1)CCC1(CCN(Cc3nc4ccccc4[nH]3)CC1)O2 [II-2, 1′-((1H-benzo[d]imidazol-2-yl)methyl)-N-hydroxyspiro[chromane-2,4′-piperidine]-6-carboxamide]"
15,> 500,"O=C(NO)c1ccc2c(c1)CCC1(CCN(C(=O)C3CCCCC3)CC1)O2 [II-3, 1′-(cyclohexanecarbonyl)-N-hydroxyspiro[chromane-2,4′-piperidine]-6-carboxamide]"
